# Where “and” joins values, the source holds several entries; their conditions need not be identical. Identical values can stand only once.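 Grown in 96-well plates, cells were treated for 48 hours with each compound at five concentrations. Insufficient inhibition: endpoint recorded as highest concentration tested. The concentration for 50% growth inhibition is given as GI50. TGI marks complete inhibition of growth.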
# Experiments:
# Experiment in all cases: NCI tumour cell line growth inhibition, 48 h
# OVCAR-5 ovarian = test system: OVCAR-5 ovarian
# HS 578T breast = test system: HS 578T breast
# RXF 393 renal = test system: RXF 393 renal
# RPMI-8226 leukemia = test system: RPMI-8226 leukemia
# UO-31 renal = test system: UO-31 renal
# UACC-62 melanoma = test system: UACC-62 melanoma
# A498 renal = test system: A498 renal
# SN12C renal = test system: SN12C renal
# KM12 colon = test system: KM12 colon
# UACC-257 melanoma = test system: UACC-257 melanoma
# EKVX NSCLC = test system: EKVX NSCLC
# MALME-3M melanoma = test system: MALME-3M melanoma
# MDA-MB-435 = test system: MDA-MB-435
# SR leukemia = test system: SR leukemia
# IGROV1 ovarian = test system: IGROV1 ovarian
# COLO 205 colon = test system: COLO 205 colon
# SK-MEL-28 melanoma = test system: SK-MEL-28 melanoma
# SF-539 CNS = test system: SF-539 CNS
# 786-0 renal = test system: 786-0 renal
# PC-3 prostate = test system: PC-3 prostate
# OVCAR-3 ovarian = test system: OVCAR-3 ovarian
# NCI-H522 lung = test system: NCI-H522 lung
# A549 NSCLC = test system: A549 NSCLC
# U251 CNS = test system: U251 CNS
# CAKI-1 renal = test system: CAKI-1 renal
# T-47D breast = test system: T-47D breast
# OVCAR-8 ovarian = test system: OVCAR-8 ovarian
# ACHN renal = test system: ACHN renal
# NCI/ADR-RES ovarian = test system: NCI/ADR-RES ovarian
# SF-268 CNS = test system: SF-268 CNS
# HOP-92 NSCLC = test system: HOP-92 NSCLC
# LOX IMVI melanoma = test system: LOX IMVI melanoma
# SNB-75 CNS = test system: SNB-75 CNS
# M14 melanoma = test system: M14 melanoma
# MCF7 breast = test system: MCF7 breast
# DU-145 prostate = test system: DU-145 prostate
# HL-60(TB) leukemia = test system: HL-60(TB) leukemia
# HCT-15 colon = test system: HCT-15 colon
# HOP-62 NSCLC = test system: HOP-62 NSCLC
# BT-549 breast = test system: BT-549 breast
# TK-10 renal = test system: TK-10 renal
# NCI-H23 lung = test system: NCI-H23 lung
# HCC-2998 colon = test system: HCC-2998 colon
# SF-295 CNS = test system: SF-295 CNS
# SK-MEL-2 melanoma = test system: SK-MEL-2 melanoma
# K-562 leukemia = test system: K-562 leukemia
# CCRF-CEM leukemia = test system: CCRF-CEM leukemia
# MOLT-4 leukemia = test system: MOLT-4 leukemia
# SK-OV-3 ovarian = test system: SK-OV-3 ovarian
# SW-620 colon = test system: SW-620 colon
# SNB-19 CNS = test system: SNB-19 CNS
# HT29 colon = test system: HT29 colon
# MDA-MB-231 breast = test system: MDA-MB-231 breast
# NCI-H226 lung = test system: NCI-H226 lung
# NCI-H460 lung = test system: NCI-H460 lung
# OVCAR-4 ovarian = test system: OVCAR-4 ovarian
# HCT-116 colon = test system: HCT-116 colon
# SK-MEL-5 melanoma = test system: SK-MEL-5 melanoma
smiles,measurement,setting,value
CC(=O)c1cc2c(o1)C(=O)c1ccccc1C2=O,GI50,OVCAR-5 ovarian,181 nM and 186 nM
same,TGI,OVCAR-5 ovarian,346 nM and 345 nM
same,GI50,HS 578T breast,292 nM and 295 nM
same,TGI,HS 578T breast,771 nM and 806 nM
same,GI50,RXF 393 renal,239 nM and 249 nM
same,TGI,RXF 393 renal,563 nM and 634 nM
same,GI50,RPMI-8226 leukemia,731 nM and 917 nM
same,TGI,RPMI-8226 leukemia,1800 nM and 3860 nM
same,GI50,UO-31 renal,219 nM and 217 nM
same,TGI,UO-31 renal,570 nM and 531 nM
same,GI50,UACC-62 melanoma,229 nM and 178 nM
same,TGI,UACC-62 melanoma,476 nM and 335 nM
same,GI50,A498 renal,682 nM and 1370 nM
same,TGI,A498 renal,1480 nM and 2690 nM
same,GI50,SN12C renal,177 nM
same,TGI,SN12C renal,346 nM
same,GI50,KM12 colon,543 nM and 713 nM
same,TGI,KM12 colon,1620 nM and 2090 nM
same,GI50,UACC-257 melanoma,191 nM and 197 nM
same,TGI,UACC-257 melanoma,370 nM and 451 nM
same,GI50,EKVX NSCLC,1190 nM and 1550 nM
same,TGI,EKVX NSCLC,2960 nM and 3410 nM
same,GI50,MALME-3M melanoma,180 nM and 143 nM
same,TGI,MALME-3M melanoma,332 nM and 281 nM
same,GI50,MDA-MB-435,89 nM and 181 nM
same,TGI,MDA-MB-435,238 nM and 330 nM
same,GI50,SR leukemia,299 nM and 308 nM
same,TGI,SR leukemia,5360 nM
same,GI50,IGROV1 ovarian,644 nM and 409 nM
same,TGI,IGROV1 ovarian,1630 nM and 1560 nM
same,GI50,COLO 205 colon,192 nM and 1720 nM
same,TGI,COLO 205 colon,374 nM and 3440 nM
same,GI50,SK-MEL-28 melanoma,222 nM and 292 nM
same,TGI,SK-MEL-28 melanoma,437 nM and 689 nM
same,GI50,SF-539 CNS,178 nM and 184 nM
same,TGI,SF-539 CNS,317 nM and 328 nM
same,GI50,786-0 renal,381 nM and 1210 nM
same,TGI,786-0 renal,1020 nM and 2710 nM
same,GI50,PC-3 prostate,713 nM and 825 nM
same,TGI,PC-3 prostate,2810 nM and 4480 nM
same,GI50,OVCAR-3 ovarian,218 nM and 225 nM
same,TGI,OVCAR-3 ovarian,507 nM and 529 nM
same,GI50,NCI-H522 lung,190 nM and 194 nM
same,TGI,NCI-H522 lung,413 nM and 495 nM
same,GI50,A549 NSCLC,217 nM and 208 nM
same,TGI,A549 NSCLC,453 nM and 434 nM
same,GI50,U251 CNS,197 nM and 256 nM
same,TGI,U251 CNS,378 nM and 682 nM
same,GI50,CAKI-1 renal,1450 nM and 823 nM
same,TGI,CAKI-1 renal,2930 nM and 2240 nM
same,GI50,T-47D breast,1330 nM and 1600 nM
same,TGI,T-47D breast,3430 nM and 4060 nM
same,GI50,OVCAR-8 ovarian,411 nM and 378 nM
same,TGI,OVCAR-8 ovarian,1320 nM and 1530 nM
same,GI50,ACHN renal,467 nM and 415 nM
same,TGI,ACHN renal,1600 nM and 1310 nM
same,GI50,NCI/ADR-RES ovarian,341 nM and 329 nM
same,TGI,NCI/ADR-RES ovarian,1810 nM and 1470 nM
same,GI50,SF-268 CNS,280 nM and 513 nM
same,TGI,SF-268 CNS,959 nM and 2300 nM
same,GI50,HOP-92 NSCLC,2180 nM and 1820 nM
same,TGI,HOP-92 NSCLC,4240 nM and 3470 nM
same,GI50,LOX IMVI melanoma,121 nM and 187 nM
same,TGI,LOX IMVI melanoma,323 nM and 438 nM
same,GI50,SNB-75 CNS,181 nM and 195 nM
same,TGI,SNB-75 CNS,328 nM and 376 nM
same,GI50,M14 melanoma,169 nM and 183 nM
same,TGI,M14 melanoma,322 nM and 345 nM
same,GI50,MCF7 breast,167 nM and 171 nM
same,TGI,MCF7 breast,394 nM
same,GI50,DU-145 prostate,174 nM and 186 nM
same,TGI,DU-145 prostate,320 nM and 331 nM
same,GI50,HL-60(TB) leukemia,241 nM and 271 nM
same,TGI,HL-60(TB) leukemia,641 nM and 773 nM
same,GI50,HCT-15 colon,166 nM and 179 nM
same,TGI,HCT-15 colon,365 nM and 398 nM
same,GI50,HOP-62 NSCLC,163 nM and 186 nM
same,TGI,HOP-62 NSCLC,329 nM and 350 nM
same,GI50,BT-549 breast,164 nM and 161 nM
same,TGI,BT-549 breast,312 nM and 304 nM
same,GI50,TK-10 renal,248 nM and 1400 nM
same,TGI,TK-10 renal,595 nM and 2900 nM
same,GI50,NCI-H23 lung,190 nM and 153 nM
same,TGI,NCI-H23 lung,535 nM and 458 nM
same,GI50,HCC-2998 colon,460 nM and 261 nM
same,TGI,HCC-2998 colon,993 nM and 689 nM
same,GI50,SF-295 CNS,173 nM
same,TGI,SF-295 CNS,332 nM and 317 nM
same,GI50,SK-MEL-2 melanoma,420 nM and 548 nM
same,TGI,SK-MEL-2 melanoma,1290 nM and 2000 nM
same,GI50,K-562 leukemia,284 nM and 311 nM
same,TGI,K-562 leukemia,795 nM and 1530 nM
same,GI50,CCRF-CEM leukemia,403 nM and 1020 nM
same,TGI,CCRF-CEM leukemia,> 100000 nM
same,GI50,MOLT-4 leukemia,570 nM and 865 nM
same,TGI,MOLT-4 leukemia,1850 nM and 3650 nM
same,GI50,SK-OV-3 ovarian,1410 nM and 1780 nM
same,TGI,SK-OV-3 ovarian,2860 nM and 3300 nM
same,GI50,SW-620 colon,288 nM and 276 nM
same,TGI,SW-620 colon,794 nM and 756 nM
same,GI50,SNB-19 CNS,222 nM and 267 nM
same,TGI,SNB-19 CNS,508 nM and 795 nM
same,GI50,HT29 colon,226 nM and 276 nM
same,TGI,HT29 colon,529 nM and 756 nM
same,GI50,MDA-MB-231 breast,765 nM and 1660 nM
same,TGI,MDA-MB-231 breast,4290 nM and 6880 nM
same,GI50,NCI-H226 lung,226 nM and 212 nM
same,TGI,NCI-H226 lung,500 nM and 472 nM
same,GI50,NCI-H460 lung,210 nM and 194 nM
same,TGI,NCI-H460 lung,422 nM and 375 nM
same,GI50,OVCAR-4 ovarian,255 nM and 377 nM
same,TGI,OVCAR-4 ovarian,767 nM and 1480 nM
same,GI50,HCT-116 colon,226 nM and 267 nM
same,TGI,HCT-116 colon,544 nM and 805 nM
same,GI50,SK-MEL-5 melanoma,169 nM and 173 nM
same,TGI,SK-MEL-5 melanoma,310 nM and 316 nM
O=C(O)CCN(CCC(=O)O)c1ccc(/C=C2\SC(=S)NC2=O)cc1,TGI,OVCAR-5 ovarian,> 100000 nM
same,TGI,HS 578T breast,> 100000 nM
same,TGI,RXF 393 renal,> 100000 nM
same,TGI,RPMI-8226 leukemia,> 100000 nM
same,TGI,UO-31 renal,> 100000 nM
same,TGI,UACC-62 melanoma,> 100000 nM
same,TGI,A498 renal,> 100000 nM
same,TGI,SN12C renal,> 100000 nM
same,TGI,KM12 colon,> 100000 nM
same,TGI,UACC-257 melanoma,> 100000 nM
same,TGI,EKVX NSCLC,> 100000 nM
same,TGI,MALME-3M melanoma,> 100000 nM
same,TGI,MDA-MB-435,> 100000 nM
same,TGI,SR leukemia,> 100000 nM
same,TGI,IGROV1 ovarian,> 100000 nM
same,TGI,COLO 205 colon,> 100000 nM
same,TGI,SK-MEL-28 melanoma,> 100000 nM
same,TGI,SF-539 CNS,> 100000 nM
same,TGI,786-0 renal,> 100000 nM
same,TGI,PC-3 prostate,> 100000 nM
same,TGI,OVCAR-3 ovarian,> 100000 nM
same,TGI,NCI-H522 lung,> 100000 nM
same,TGI,A549 NSCLC,> 100000 nM
same,TGI,U251 CNS,> 100000 nM
same,TGI,CAKI-1 renal,> 100000 nM
same,TGI,T-47D breast,> 100000 nM
same,TGI,OVCAR-8 ovarian,> 100000 nM
same,TGI,ACHN renal,> 100000 nM
same,TGI,NCI/ADR-RES ovarian,> 100000 nM
same,TGI,SF-268 CNS,> 100000 nM
same,TGI,HOP-92 NSCLC,> 100000 nM
same,TGI,LOX IMVI melanoma,> 100000 nM
same,TGI,SNB-75 CNS,> 100000 nM
same,TGI,M14 melanoma,> 100000 nM
same,TGI,MCF7 breast,> 100000 nM
same,TGI,DU-145 prostate,> 100000 nM
same,TGI,HL-60(TB) leukemia,> 100000 nM
same,TGI,HCT-15 colon,> 100000 nM
same,TGI,HOP-62 NSCLC,> 100000 nM
same,TGI,BT-549 breast,> 100000 nM
same,TGI,TK-10 renal,> 100000 nM
same,TGI,NCI-H23 lung,> 100000 nM
same,TGI,HCC-2998 colon,> 100000 nM
same,TGI,SF-295 CNS,> 100000 nM
same,TGI,SK-MEL-2 melanoma,> 100000 nM
same,TGI,K-562 leukemia,> 100000 nM
same,TGI,CCRF-CEM leukemia,> 100000 nM
same,TGI,MOLT-4 leukemia,> 100000 nM
same,TGI,SK-OV-3 ovarian,> 100000 nM
same,TGI,SW-620 colon,> 100000 nM
same,TGI,SNB-19 CNS,> 100000 nM
same,TGI,HT29 colon,> 100000 nM
same,TGI,MDA-MB-231 breast,> 100000 nM
same,TGI,NCI-H226 lung,> 100000 nM
same,TGI,NCI-H460 lung,> 100000 nM
same,TGI,OVCAR-4 ovarian,> 100000 nM
same,TGI,HCT-116 colon,> 100000 nM
same,TGI,SK-MEL-5 melanoma,> 100000 nM

# From PubChem BioAssay (NCI)
